Assay results taken from ChEMBL document CHEMBL1268972, “Solid-phase synthesis and screening of N-acylated polyamine (NAPA) combinatorial libraries for protein binding” (Bioorg Med Chem Lett, 2010).

Test: Binding to HIV1 Vpr by isothermal titration calorimetry
Set-up: species or system Human immunodeficiency virus

Kd: 25 µM
Structure (SMILES): C[C@H](CC(N)=O)N(C[C@@H](CCCCN)N(C[C@@H](CCCCN)N(C[C@@H](Cc1ccc(O)cc1)NC(=O)Cc1ccc([N+](=O)[O-])cc1)C(=O)CCc1ccccc1)C(=O)CCc1ccccc1)C(=O)CCc1ccccc1
